Measured values from ChEMBL document CHEMBL4184319, “Fluorescent-Labeled Selective Adenosine A2B Receptor Antagonist Enables Competition Binding Assay by Flow Cytometry” (J Med Chem, 2018).

Legend:
[1] = Selectivity ratio of Ki for adenosine A2A receptor in rat brain striatal membranes to Ki for recombinant human adenosine A2B receptor expressed in CHO cell membranes; type: cell-based
[2] = Selectivity ratio of Ki for recombinant human adenosine A2A receptor expressed in HEK cell membranes to Ki for recombinant mouse adenosine A2B receptor expressed in CHO cell membranes; type: cell-based

## CCCn1c(=O)[nH]c2nc(-c3ccc(OCC(=O)NCCC4=C5C(C)=CC(C)=[N+]5[B-](F)(F)n5c(C)cc(C)c54)cc3)[nH]c2c1=O
[1]
  Ratio Ki: > 150
[2]
  Ratio Ki: > 1000
